Legend:
Format in all cases: in vivo
Mythimna separata = experiment: Insecticidal activity against Mythimna separata, Airbrush spray on maize leaf pieces; conditions: 72 h, 0.05 mg/L, 3 days after the administration, 3rd-instar larvae, read-out: mortality rate against Mythimna separata
Method: (§1) After the compound to be determined was dissolved in a mixed solvent of acetone/methanol (1:1), it was diluted with water containing 0.1% (wt) Tween-80 to a desired concentration.
(§2) Mythimna separata, Diamondback moth, Chilo suppressalis, Spodoptera exigua, Myzus persicae, and Franklinella occidentalis were used as targets, and the activity was tested by an Airbrush spray method.
Determination method: maize leaves were cut into 2 cm leaf pieces, and the front and back of each leaf piece were sprayed under an Airbrush spray treatment pressure of 10 psi (approximate to 0.7 kg/cm^2) and with a spray volume of 0.5 mL. After drying in the shade, 10 3rd-instar larvae were inoculated for each treatment, and each treatment was repeated for 3 times. After the treatment, the leaf pieces were put into an observation chamber at 25° C. and with a relative humidity of 60% to 70%, and the number of living larvae was investigated 3 days after the administration of the compounds, and the mortality rates were calculated.

Spodoptera exigua = experiment: Insecticidal activity against Spodoptera exigua, leaf disc dipping feeding method; conditions: foliar, 72 h, 0.625 mg/L, 3 days after the administration, read-out: mortality rate against Spodoptera exigua
Method: After the compound to be determined was dissolved in a mixed solvent of acetone/methanol (1:1), it was diluted with water containing 0.1% (wt) Tween-80 to a desired concentration. […]
Determination method: the activity was tested by using a leaf disc dipping feeding method. Leaf discs were dipped in a drug solution for 10 s, and placed in a culture dish after being air-dried, there were 4 discs in each dish, and a filter paper was placed in the culture dish for moisture retention. 10 test insects of Spodoptera exigua were introduced to each dish, with 3 replicates.
They were placed in a light incubator for culture at a temperature of 25° C. and an illumination of 14hL:10hD. On the 1st, 2nd, and 3rd day after the administration, the number of dead Spodoptera exigua was investigated and the mortality rate was calculated.

Diamondback moth = experiment: Insecticidal activity against Diamondback moth, Airbrush spray on cabbage leaf discs; conditions: Plutella xylostella, foliar, 72 h, 3 days after the administration; for mortality at 1.25 µg/mL: 1.25 mg/L, 3rd-instar larvae, read-out: mortality rate against Diamondback moth; for mortality at 10 µg/mL: 10 mg/L, Diamondback moth, read-out: Mortality rate (%, 3 days after the administration) 10 mg/L
Method: as §1, §2
Determination method: cabbage leaves were formed into leaf discs having a diameter of 2 cm using a puncher, and the front and back of each leaf disc were sprayed under an Airbrush spray treatment pressure of 10 psi (approximate to 0.7 kg/cm^2) and with a spray volume of 0.5 mL. After drying in the shade, 10 3rd-instar larvae were inoculated for each treatment, and each treatment was repeated for 3 times. After the treatment, the leaf discs were placed into an observation chamber at 25° C. and with a relative humidity of 60% to 70%, and the number of living larvae was investigated 3 days after the administration of the compounds, and the mortality rates were calculated.

Chilo suppressalis = experiment: Insecticidal activity against Chilo suppressalis, sprayed rice stems; conditions: 72 h, 0.625 mg/L, 3 days after the administration, 3rd-instar larvae, read-out: mortality rate against Chilo suppressalis
Method: as §1, §2
Determination method: 1) Preparation of rice seedlings: rice was cultured in a plastic small cup with a diameter of 4.5 cm and a height of 4 cm in a constant temperature room (the temperature was 26-28° C., the relative humidity was about 60-80%, and the illumination was 16hL:8hD), when the rice grown to a 4-5 leaf stage, robust and uniformly grown rice seedlings were selected for pharmaceutical treatment, and 3 replicates were set for each treatment. 2) Preparation of test insects: 3rd-instar larvae of Chilo suppressalis were continuously reared indoors. 3) Rice stems were sprayed and insects were introduced. A spray method was used to treat whole rice seedlings with uniform spray, and each treatment was 15 mL. Blank controls were treated firstly, and then the above operation was repeated in an order of experimental concentrations from low to high. After the spray treatment of the rice seedlings, they were placed in the shade to air-dry drug liquid, about 5 cm of the stem from a basal part of the stem was cut and fed to the test insects. A glass culture dish with a diameter of 90 mm was prepared, filter paper was placed on the bottom of the dish, then water was added to moisturize. About 5 rice stems were placed in each dish, 10 larvae were introduced, and the culture dish was closed with non-woven fabric and placed in the constant-temperature room for culture. 3 days after the administration, the number of residual live insects was investigated.

cat flea = experiment: Insecticidal experiment on cat flea, thin film in culture dish; conditions: Ctenocephalides felis, 72 h, read-out: mortality rate, cat flea
Method: 4 mg of the compound to be determined was dissolved in 40 mL of acetone to obtain an acetone solution with a concentration of 100 mg/L. 400 μL of the drug solution was applied on the bottom and sides of a culture dish with an inner diameter of 5.3 cm, then after acetone was evaporated, a thin film of the compound of the present invention was made on the inner wall of the culture dish. The inner wall of the culture dish used was 40 cm^2, and the treatment dosage was 1 μg/cm^2. 10 adult cat fleas (mixed male and female) were put into the dish, and it was stored in a constant-temperature room at 25° C. after being covered. The number of dead insects after 72 h was checked and the mortality rate was calculated. The experiment was repeated for 3 times.

Myzus persicae = experiment: Insecticidal activity against Myzus persicae, Airbrush spray on cabbage leaves; conditions: 50 mg/L, after 48 h, read-out: mortality rate against Myzus persicae
Method: as §1, §2
Determination method: a culture dish with a diameter of 6 cm was taken, the bottom of the dish was covered by a layer of filter paper, and an appropriate amount of tap water was added to moisturize the paper. Cabbage leaves with an appropriate size (the diameter was about 3 cm) and 15-30 aphids grown were cut from cabbage plants used to culture Myzus persicae, winged aphids and aphids on the front of the leave were removed, and it was placed in the culture dish while the back of the leave was upward. The pressure of airbrush spray treatment was 10 psi (about 0.7 kg/cm^2), the liquid spray volume was 0.5 mL, and there were 3 replicates for each treatment. After the treatment, the leave was put into an observation room for culture at 25° C. and a relative humidity of 60-70%. After 48 h, the number of live insects was investigated and the mortality rate was calculated.

Row | SMILES | mortality at 0.05 µg/mL (Mythimna separata) [%] | mortality at 0.625 µg/mL (Spodoptera exigua) [%] | mortality at 1.25 µg/mL (Diamondback moth) [%] | mortality at 10 µg/mL (Diamondback moth) [%] | mortality at 0.625 µg/mL (Chilo suppressalis) [%] | mortality at 1 µg/cm2 (cat flea) [%] | mortality at 50 µg/mL (Myzus persicae) [%]
1 | C=CCN(C(=O)c1ccccc1)c1cccc(C(=O)Nc2c(I)cc(C(F)(C(F)(F)F)C(F)(F)F)cc2C(F)(F)F)c1F [Compound 4] | > 90 | > 90 | > 90 | 100 | > 90 | > 90 | > 90
2 | C=CCN(C(=O)c1ccc(C#N)cc1)c1cccc(C(=O)Nc2c(Br)cc(C(F)(C(F)(F)F)C(F)(F)F)cc2C(F)(F)F)c1F [Compound 11] | > 90 | > 90 | > 90 | 100 | > 90 | > 90 | > 90
3 | C=CCN(C(=O)c1ccc(C#N)cc1)c1cccc(C(=O)Nc2c(I)cc(C(F)(C(F)(F)F)C(F)(F)F)cc2C(F)(F)F)c1F [Compound 12] | > 90 | > 90 | > 90 | 100 | > 90 | > 90 | > 90
4 | C=CCN(C(=O)c1ccc(C#N)nc1)c1cccc(C(=O)Nc2c(Br)cc(C(F)(C(F)(F)F)C(F)(F)F)cc2C(F)(F)F)c1F [Compound 23] | > 90 | > 90 | > 90 | 100 | > 90 | > 90 | > 90
5 | C=CCN(C(=O)c1ccc(C#N)nc1)c1cccc(C(=O)Nc2c(I)cc(C(F)(C(F)(F)F)C(F)(F)F)cc2C(F)(F)F)c1F [Compound 24] | > 90 | > 90 | > 90 | 100 | > 90 | > 90 | > 90
6 | C=CCN(C(=O)c1ccc(C(F)(F)F)nc1)c1cccc(C(=O)Nc2c(Br)cc(C(F)(C(F)(F)F)C(F)(F)F)cc2C(F)(F)F)c1F [Compound 27] | > 90 | > 90 | > 90 | 100 | > 90 | > 90 | > 90
7 | C=CCN(C(=O)c1ccc(C(F)(F)F)nc1)c1cccc(C(=O)Nc2c(I)cc(C(F)(C(F)(F)F)C(F)(F)F)cc2C(F)(F)F)c1F [Compound 28] | > 90 | > 90 | > 90 | 100 | > 90 | > 90 | > 90
8 | C#CCN(C(=O)c1ccccc1)c1cccc(C(=O)Nc2c(I)cc(C(F)(C(F)(F)F)C(F)(F)F)cc2C(F)(F)F)c1F [Compound 32] | > 90 | > 90 | > 90 | 100 | > 90 | > 90 | > 90
9 | C#CCN(C(=O)c1ccc(C#N)cc1)c1cccc(C(=O)Nc2c(Br)cc(C(F)(C(F)(F)F)C(F)(F)F)cc2C(F)(F)F)c1F [Compound 39] | > 90 | > 90 | > 90 | 100 | > 90 | > 90 | > 90
10 | C#CCN(C(=O)c1ccc(C#N)cc1)c1cccc(C(=O)Nc2c(I)cc(C(F)(C(F)(F)F)C(F)(F)F)cc2C(F)(F)F)c1F [Compound 40] | > 90 | > 90 | > 90 | 100 | > 90 | > 90 | > 90
11 | C#CCN(C(=O)c1ccc(C#N)nc1)c1cccc(C(=O)Nc2c(Br)cc(C(F)(C(F)(F)F)C(F)(F)F)cc2C(F)(F)F)c1F [Compound 51] | > 90 | > 90 | > 90 | 100 | > 90 | > 90 | > 90
12 | C#CCN(C(=O)c1ccc(C#N)nc1)c1cccc(C(=O)Nc2c(I)cc(C(F)(C(F)(F)F)C(F)(F)F)cc2C(F)(F)F)c1F [Compound 52] | > 90 | > 90 | > 90 | 100 | > 90 | > 90 | > 90
13 | C#CCN(C(=O)c1ccc(C(F)(F)F)nc1)c1cccc(C(=O)Nc2c(Br)cc(C(F)(C(F)(F)F)C(F)(F)F)cc2C(F)(F)F)c1F [Compound 55] | > 90 | > 90 | > 90 | 100 | > 90 | > 90 | > 90
14 | C#CCN(C(=O)c1ccc(C(F)(F)F)nc1)c1cccc(C(=O)Nc2c(I)cc(C(F)(C(F)(F)F)C(F)(F)F)cc2C(F)(F)F)c1F [Compound 56] | > 90 | > 90 | > 90 | 100 | > 90 | > 90 | > 90
